Laboratory results as given in US8309611B2, “Methods and compositions for treating lung cancer” (Golden Biotechnology Corporation, priority 2011, dated 2012).
In brackets after ≈: the same amount, converted by molar mass. Like-named read-outs stand apart in the source and are kept apart here.

Experiments:
[1] = system: A549; test: MTT cell survival assay, A549; type: cell-based; details: Homo sapiens
Procedure: (§1) The NCI anti-cancer drug screen model was adopted to test anti-cancer effect of the exemplary compounds from Example 1. The isolated compound 1 from Example 1 was added into the culture media of human lung-cancer cells, A549, NCI-H460, CL1-0, CL1-5 or DMS 114, to test for tumor cell survival (either by MTT assay or colony formation assay). Compounds 4, 5, 6, and 7 were used in MTT assay against A549.
(§2) A549, CL1-0, and CL1-5 cells are human lung adenocarcinoma cell lines. CL1-0 cells are minimally invasive sub-lines with low migration. CL1-5 cell line, on the other hand, is highly invasive with high migration ability. The NCI-H460 cell line is derived from human large cell lung cancer, which is one of the major types of non-small cell lung carcinoma. DMS 114 is small cell lung cancer cell line, and was obtained from the American Type Culture Collection (Manassas, Va.).
MTT assay is commonly used to determine cell proliferation, percent of viable cells, and cytotoxicity. MTT (3-[4,5-dimethylthiazol-2-yl]2,5-diphenyltetrazolium bromide) is a yellow dye, which can be absorbed by the living cells and be reduced to purplish blue formazan crystals by succinate tetrazolium reductase in mitochondria. Formazan formation can therefore be used to assess and determine the survival rate of cells.
A549, NCI-H460, CL1-0, CL1-5 and DMS 114 cells were suspended and cultured in 10% fetal bovine serum (Life Technologies Inc.) containing RPM1-1640 culture medium that also includes 1% penicillin and 1% streptomycin. Human bronchial epithelium cell line, BEAS-2B was used as a control. The BEAS-2B cell line was cultured in LHC-9 serum-free medium. All these cell lines were incubated under 5% CO2, 37° C. for 24 hours. After cell proliferation, the cells were washed once with PBS, treated with the trypsin-EDTA, and then centrifuged at 1,200 rpm for 5 minutes to separate cells from supernatant. The cells were re-suspended in fresh culture medium (10 mL) and placed in 96 well plates.
To each of the 96 well plates containing A549, NCI-H460, CL1-0, CL1-5, DMS 114 or BEAS-2B, 0.03, 0.1, 0.3, 1 and 3 μg/ml of compound 1 were add. The 96 well plates were incubated at 37° C., 5% CO2 for 48 hours. Subsequently, in the dark environment to each well of the plates were added 2.5 mg/ml of MTT. The reaction was terminated by addition of 100 ul of lysis buffer after 4 hours. The survival rate of cells was calculated based on the measurement of absorption at the 570 nm wavelength by enzyme immunoassay analyzer.

[2] = system: NCI-H460; test: MTT cell survival assay, NCI-H460; type: cell-based; details: Homo sapiens, 48 hours, read-out: IC50 (μg/ml), in vitro cell survival rate test, NCI-H460
Procedure: as §1, §2
(§3) MTT assay is commonly used to determine cell proliferation, percent of viable cells, and cytotoxicity. […]
(§4) To each of the 96 well plates containing A549, NCI-H460, CL1-0, CL1-5, DMS 114 or BEAS-2B, 0.03, 0.1, 0.3, 1 and 3 μg/ml of compound 1 were add. […] The survival rate of cells was calculated based on the measurement of absorption at the 570 nm wavelength by enzyme immunoassay analyzer.

[3] = system: DMS 114; test: MTT cell survival assay, DMS 114; type: cell-based; details: Homo sapiens, 48 hours, read-out: IC50 against DMS 114
Procedure: as §1, §2, §3, §4

[4] = Drug distribution in organs analysis (LC/MS/MS); type: in vivo, CD-1 male mice; details: CD-1 mice, iv 2 mg/Kg, 0.25-4 hours, plasma, kidney, small and large intestine
Procedure: Experiments described herein were performed on CD-1 male mice (average weight 24±2 grams, provided by BioLasco, Taiwan). The mice were injected intravenously with a solution of compound 1 in 5% ethanol and 30% PEG400 (2 mg/Kg body weight). After 0.25, 0.5, 1, 2, 4 hours of the iv injection, 0.5 ml of blood was collected via cardiac puncture. The bloods were placed in a centrifuge tube containing K-EDTA and centrifuged for 15 min at 4° C. under 1500 g to produce supernatants (plasma sample). At the same time points, lung, kidney, small intestine and large intestine of the mice were collected and preserved at −70° C. for similar analysis.
The concentration of compound 1 in various organ samples (i.e., plasma, large intestine, left kidney, lung, right kidney and small intestine) were analyzed by LC/MS/MS spectrometer (Waters Alliance 2790 LC and Micromass Quattro Ultima). For example, plasma sample was mixed with acetonitrile and then centrifuged to prepare supernatant that was analyzed by LC/MS/MS. The pharmacokinetic parameters were obtained by WinNonlin™ software by non-compartment method.

[5] = 48 hours, read-out: IC50 (μg/ml), in vitro cell survival rate test, A549

| Structure (SMILES) | IC50 [1, 5] [µg/mL] | IC50 ([1]; read-out: IC50 on A549 (text)) [µM] | IC50 [2] [µg/mL] | IC50 [3] [µM] | Concentration in lung versus other organs (FIG. 10) [4] |
| --- | --- | --- | --- | --- | --- |
| COC1=C(OC)C(O)C(C/C=C(\C)CC/C=C(\C)CCCC(C)(C)OC)C(C)C1=O (stereo not drawn) [Compound 7, 4-hydroxy-2,3-dimethoxy-5-(11-methoxy-3,7,11-trimethyldodeca-2,6-dienyl)-6-methylcyclohex-2-enone] | 10.5 | – | – | – | – |
| COC1=C(OC)C(O)C(C/C=C(\C)CCC(=O)O)C(C)C1=O (stereo not drawn) [Compound 6] | 28 | 28 | – | – | – |
| COC1=C(OC)C(O)C(C/C=C(\C)CC/C=C(\C)CCC=C(C)C)C(C)C1=O (stereo not drawn) [Compound 1, 4-hydroxy-2,3-dimethoxy-6-methyl-5-(3,7,11-trimethyldodeca-2,6,10-trienyl)cyclohex-2-enone] | 0.45 | – | 0.82 (≈ 2.1 µM) | 16 | significantly higher concentration than other organs |
| COC1=C(O)C(O)C(C/C=C(\C)CC/C=C(\C)CCC=C(C)C)C(C)C1=O (stereo not drawn) [Compound 4, 3,4-dihydroxy-2-methoxy-6-methyl-5-(3,7,11-trimethyldodeca-2,6,10-trienyl)cyclohex-2-enone] | 3.24 | – | – | – | – |
| COC1=C(OC)C(O)C(C/C=C(\C)CC/C=C(\C)CCCC(C)(C)O)C(C)C1=O (stereo not drawn) [Compound 5, 4-hydroxy-5-(11-hydroxy-3,7,11-trimethyldodeca-2,6-dienyl)-2,3-dimethoxy-6-methylcyclohex-2-enone] | 13.5 | – | – | – | – |
